The results in this text go back to ChEMBL document CHEMBL3507680, “University of Dundee, Gates Library screen for HepG2 cell viability”.

This data set in a line: Human HepG2 cell viability assay in 384 well format. The data set is classed as toxicity, cell-based. The arrangement: dose 125 nL, time 70.5 hour; cytotoxicity at 70.5 h: concentration not given beside the values. The settings on record: HepG2 cells, read-out: Inhibition.
Take `OCC1(CC2CCCCO2)CCN(c2cnc3ccccc3n2)CC1` (centres undefined): the cytotoxicity at 70.5 h is -12.6%.

As to `CCOCCCNC(=O)c1nn(CC)cc1Br`, the cytotoxicity at 70.5 h worked out at 25.1%.

Consider `CN(C)C1CC2(CCN(C(=O)C3(C#N)CC3)CC2)c2ccccc21` (centres undefined), for which the cytotoxicity at 70.5 h is -10.7%.

Take `CCNC(=O)c1cn(C(C)(C)C)c2ncccc12`: the cytotoxicity at 70.5 h is -0.924%.

Turning to `Cc1cc(NC(=O)CN2CCCC2c2c(C)nn(C)c2C)on1` (centres undefined), the cytotoxicity at 70.5 h is -2.37%.

Take `N#Cc1cn(C2CC2)c(=O)n(Cc2cc(-c3cccs3)on2)c1=O`: the cytotoxicity at 70.5 h was -6.97%.

For `O=C(NCc1cccc2cccnc12)N1CCC(n2cncn2)CC1`, the cytotoxicity at 70.5 h was -1.7%.

Take `Cc1cc(CNc2ccnn2C)ccc1-n1cncn1`: the cytotoxicity at 70.5 h is -1.29%.

With `O=C(COC1CCCC1)Nc1ncn(CC(=O)N2CCCCCC2)n1`, the cytotoxicity at 70.5 h was -8.06%.

With `O=C1CN(c2ccc(CNC(=O)NCC3CCOC3)cc2)CCN1` (centres undefined), the cytotoxicity at 70.5 h is -5.59%.

`CCCC(Nc1nc(COCC)nc2c1CCNCC2)c1nccn1C` (centres undefined): the cytotoxicity at 70.5 h came to 2.1%.

Take `CC(=O)N1N=C(COc2ccc3c(c2)OCO3)OC1c1ccc(C)cc1` (centres undefined): the cytotoxicity at 70.5 h was -14.5%.

`O=C(c1cnc(Nc2ccccc2)nc1)N1CCC2(CCNCC2)CC1`: the cytotoxicity at 70.5 h was -13.5%.

Take `CN1C(=O)C(c2cccnc2)CC12CCN(C(=O)c1ccc[nH]1)CC2` (centres undefined): the cytotoxicity at 70.5 h amounted to 15.4%.

For `CC(=O)c1ccc(N2CCC3(CC2)CC(=O)N(C)C3)nc1`, the cytotoxicity at 70.5 h was 4.13%.

Turning to `Cc1ccc(CN2CCCC(c3cnccn3)C2)s1` (centres undefined), the cytotoxicity at 70.5 h was -1.38%.

For `CNC(=O)C1(CCCc2ccncc2)CCN1` (centres undefined), the cytotoxicity at 70.5 h was -9.29%.

For the compound `O=C(CCn1c(=O)oc2ccccc21)NCC(O)c1ccc(Cl)cc1` (centres undefined), the cytotoxicity at 70.5 h was 9.7%.

In the case of `Cn1cc(C(NCCc2ccccn2)c2cccc(F)c2)cn1` (centres undefined), the cytotoxicity at 70.5 h is -5.84%.

Turning to `CC(C)(C)C(=O)N1CCCC1(C(=O)N1CCCC1)c1cnccn1` (centres undefined), the cytotoxicity at 70.5 h is 18.9%.

Take `CNC(=O)c1cc(NC(=O)NC(C)CCc2cccn2C)ccc1F` (centres undefined): the cytotoxicity at 70.5 h stood at 22.7%.

`C[C@H]1C[C@@H]2CCN(CC3CCOCC3)C[C@H]2O1`: the cytotoxicity at 70.5 h is -7.97%.

`CC1CN(c2ccc(CNC(=O)NCCn3ccnc3)cn2)CCO1` (centres undefined): the cytotoxicity at 70.5 h is -16.7%.

With `Cc1noc(C2CCCN(Cn3cc(Br)cn3)C2)n1` (centres undefined), the cytotoxicity at 70.5 h is -8.2%.

As to `CC(=O)N(Cc1ncc(C)o1)C1CCN(Cc2ccccc2F)C1` (centres undefined), the cytotoxicity at 70.5 h was -2.68%.

On to `CN(C)C(C)(C)CNCc1c[nH]nc1-c1cc2ccccc2o1`, for which the cytotoxicity at 70.5 h stood at 10%.

As for `CCc1ocnc1C(=O)N1CCC2(CCCN(CC(C)(C)C)C2=O)C1` (centres undefined), the cytotoxicity at 70.5 h is -6.31%.

Turning to `CCOC(=O)NC(CNC(=O)c1cccnc1SC)CC(C)C` (centres undefined), the cytotoxicity at 70.5 h was 8.28%.

`Cc1nc(C)n(CCNC2CCN(c3ncnc4c(C)csc34)CC2)n1`: the cytotoxicity at 70.5 h is -5.4%.

Turning to `O=S(=O)(C1CC1)N1CCc2c(CN3CCOCC3)cncc2C1`, the cytotoxicity at 70.5 h is -2.38%.

On to `CN(C)c1ccc(NC(=O)N2CCc3sccc3C2)cn1`, for which the cytotoxicity at 70.5 h is 4.85%.

Regarding `CCOCC1CCCN(C(=O)NCc2cn3c(C)cccc3n2)C1` (centres undefined), the cytotoxicity at 70.5 h came out at 9.89%.

As to `CC(C)NC(=O)CCNC(=O)c1c(Br)c2ccccc2n1C`, the cytotoxicity at 70.5 h is -0.338%.

On to `CCc1nccn1-c1cncc(C2CCCN2)n1` (centres undefined), for which the cytotoxicity at 70.5 h was -8.79%.

`COc1ccc(CN2C[C@@H]3CCCO[C@@H]3[C@H](NC(=O)CC3CC3)C2)cc1`: the cytotoxicity at 70.5 h was 3.18%.

Regarding `CC(C)c1cc(NCC(C)N2CCCC2)n2nccc2n1` (centres undefined), the cytotoxicity at 70.5 h is -10.1%.

In the case of `CC(NCc1cccc(S(=O)(=O)N(C)C)c1)c1cccnc1` (centres undefined), the cytotoxicity at 70.5 h is -3.39%.

`Cc1ccc(CCN2CCC(N(C)Cc3noc(C4CC4)n3)C2)cc1` (centres undefined): the cytotoxicity at 70.5 h was 3.87%.

As for `O=C1N(Cc2ccc(F)c(F)c2)CCCC1(O)CNCc1ccccn1` (centres undefined), the cytotoxicity at 70.5 h is -4.31%.

Regarding `CC(C)NC(=O)N1CCC2(CC1)CC[C@@]1(C(=O)N(C)C)CN(C)C[C@@H]21`, the cytotoxicity at 70.5 h was -11.9%.

In the case of `CCn1cnnc1CNC(=O)c1cc(Cl)c(I)cc1OC`, the cytotoxicity at 70.5 h is -7.1%.

In the case of `CSCC(=O)N1CCCN(Cc2cscn2)CC1`, the cytotoxicity at 70.5 h is -2.64%.

For the compound `CC1CN(C)CCN1C(=O)c1cnn(-c2ccc(Cl)cc2)c1` (centres undefined), the cytotoxicity at 70.5 h was found to be 19.4%.

With `Cn1cnnc1C1CCCN(C(=O)c2ccc3c(c2)OCCCO3)C1` (centres undefined), the cytotoxicity at 70.5 h is -2.02%.

Take `CCC1CN(CC(=O)NCc2ccco2)CCO1` (centres undefined): the cytotoxicity at 70.5 h turned out to be 2.02%.

Turning to `CCN1CCN(C2CCN(CCOc3ccc(F)cc3)CC2)C1=O`, the cytotoxicity at 70.5 h is -11.7%.

As for `Cn1c(CN2CCCC2)nnc1C1CCCN(C(=O)CN2CCCC2)C1` (centres undefined), the cytotoxicity at 70.5 h was 2.51%.

Turning to `Cc1ccccc1CSCCn1nc2ccccn2c1=O`, the cytotoxicity at 70.5 h is -9.36%.

With `CCCN(C)C(=O)Nc1ccc(C(=O)NCCC(=O)OC)cc1`, the cytotoxicity at 70.5 h is -6.01%.

For `Cc1ccc(C(C)NC(=O)Nc2ccccc2CN2CCOCC2)o1` (centres undefined), the cytotoxicity at 70.5 h is -11.2%.

For the compound `c1ccc(Sc2ccc3c(c2)OCO3)c(CNC2=NCCN2)c1`, the cytotoxicity at 70.5 h is -0.794%.

Take `Cc1nc(CNCC2CCCN2c2cccnn2)oc1C` (centres undefined): the cytotoxicity at 70.5 h is -4.96%.

As for `Cc1ccc(CNC(=O)c2cc(C)n(C)n2)o1`, the cytotoxicity at 70.5 h is -8.67%.

Regarding `Cc1nc(N2CCC(C(O)c3nccn3C)CC2)c2sccc2n1` (centres undefined), the cytotoxicity at 70.5 h was 35.8%.

On to `Cc1cc(CN(C)C(=O)NCc2ccccn2)no1`, for which the cytotoxicity at 70.5 h was -1.24%.

`CN(C)C(=O)Cc1nc(CN2CCOC(Cn3cccn3)C2)cs1` (centres undefined): the cytotoxicity at 70.5 h is 1.45%.

Turning to `c1csc(CCNc2nc(-c3ccncc3)nc3c2CCNCC3)c1`, the cytotoxicity at 70.5 h was -6.1%.

Take `Cc1ccc(C(=O)N2CCc3c(CNc4ncccn4)cncc3C2)o1`: the cytotoxicity at 70.5 h is -10.9%.

Regarding `Cc1nnc2n1CC(CNCc1nc(-c3cccs3)no1)CC2` (centres undefined), the cytotoxicity at 70.5 h is 18.6%.

With `NCCn1nc(C2CCN(C(=O)Cc3ccccc3)C2)c2nccnc21` (centres undefined), the cytotoxicity at 70.5 h was -5.36%.

Regarding `CO[C@H]1CCN(Cc2cnn(C)c2)[C@@H]2CN(Cc3cccnc3)C[C@H]12`, the cytotoxicity at 70.5 h is -25.8%.

With `CCN(C)C[C@H]1CC[C@@H](Cc2ccc3c(cnn3C)c2)O1`, the cytotoxicity at 70.5 h is 11.5%.

As for `CN(Cc1cccs1)c1nc2c(cnn2C(C)(C)C)c(=O)[nH]1`, the cytotoxicity at 70.5 h is -6.5%.

Regarding `Cn1cc(C(=O)N2C[C@H]3C[C@H](Oc4ccccc4)C[C@H]3C2)cn1`, the cytotoxicity at 70.5 h is -3.01%.

Consider `O=C(C1CCCC1)N1CCO[C@H]2[C@H](OCC3CCOCC3)CC[C@@H]21`, for which the cytotoxicity at 70.5 h was -5.12%.

With `O=C(c1cccs1)N1CCOCC2(C1)CN(c1ccccc1)C(=O)CO2` (centres undefined), the cytotoxicity at 70.5 h was -9.8%.

For the compound `Cc1ccc([C@@]2(O)CC[C@@H]3CN(S(=O)(=O)C(C)C)C[C@@H]32)cc1`, the cytotoxicity at 70.5 h was 2.49%.

On to `Cc1nc(CC(=O)N2CCC(c3nn(C)c4ncccc34)CC2)cs1`, for which the cytotoxicity at 70.5 h is -9.42%.

Regarding `CCCOC1CCCN(Cc2nc(-c3ccc(F)cc3F)oc2C)C1` (centres undefined), the cytotoxicity at 70.5 h was -5.84%.

For `CCCc1nc(NCC(=O)N2CCOCC2)c2c(n1)c(C)nn2CC`, the cytotoxicity at 70.5 h worked out at 44.1%.

For `Cn1cc(CN2CCCC3(COCCN(c4cccnc4)C3)C2)cn1` (centres undefined), the cytotoxicity at 70.5 h was -6.27%.

Take `COc1cc(C2CC(=O)Nc3c2nc2n3CCCC2)cc2c1OCO2` (centres undefined): the cytotoxicity at 70.5 h was -12%.

Take `CN(C)C(=O)c1nnc2ccc(N3CCOCC3)cc2n1`: the cytotoxicity at 70.5 h was -2.48%.

Consider `COc1ccc(CC(=O)N2C[C@H]3CN(Cc4ccccn4)C[C@H]3C2)cc1`, for which the cytotoxicity at 70.5 h is -3.26%.

For the compound `O=C(NCC1(O)CCCC1)c1ccc2nsnc2c1`, the cytotoxicity at 70.5 h is -20.9%.

Regarding `Cc1ccc(Cl)cc1NS(=O)(=O)c1cc(C(N)=O)n(C)c1`, the cytotoxicity at 70.5 h is -0.833%.

With `COC(C(=O)NCc1c(C)nc2cc(=O)[nH]n2c1C)c1ccccc1` (centres undefined), the cytotoxicity at 70.5 h is -3.2%.

As to `Cc1cnn(C(C)C2CC2)c1NC(=O)c1ccncc1` (centres undefined), the cytotoxicity at 70.5 h is -8.36%.

`O=C(Nc1cccnc1-n1cncn1)N(C1CCCC1)C1CC1`: the cytotoxicity at 70.5 h is -7.6%.

In the case of `C[C@@H]1CN(C2CCOCC2)C[C@]12CCN(c1cccnc1)C2=O`, the cytotoxicity at 70.5 h was -5.4%.

Take `CC(C)(C)OC(=O)NC(C)(C)c1noc(CN2CCCCC2)n1`: the cytotoxicity at 70.5 h was -3.07%.

Consider `Cc1cc(CNc2ccc(CC(=O)N(C)c3ccccc3)cc2)no1`, for which the cytotoxicity at 70.5 h was 0.0494%.

As for `Cc1ccc(-n2ncc(C(=O)NCC3CCS(=O)(=O)C3)c2C)cc1` (centres undefined), the cytotoxicity at 70.5 h was -4.72%.

`CC(Cn1cncn1)Nc1ccc(-c2nccn2C)nn1` (centres undefined): the cytotoxicity at 70.5 h is -7.86%.

In the case of `O=C(c1ccc2c(c1)CCC2)N1CC[C@H](O)[C@]2(CCCO2)C1`, the cytotoxicity at 70.5 h was -0.381%.

On to `O=C(c1cccnc1-n1cncn1)N1CCN(CC2CC2)CC1`, for which the cytotoxicity at 70.5 h is -7.39%.

In the case of `CC(C)n1cc(S(=O)(=O)N2CCCC(N3CCCCC3)C2)cn1` (centres undefined), the cytotoxicity at 70.5 h is -16.1%.

For `CCOC(=O)C1CN(C(=O)COC)Cc2ncn(CC)c21` (centres undefined), the cytotoxicity at 70.5 h was -5.03%.

As to `O=C(NCc1ccccc1)N1CCc2ncnc(NC3CC3)c2CC1`, the cytotoxicity at 70.5 h is -3.8%.

For `CN(CC(=O)N1CCCC1)C(=O)c1cccn1CCc1ccccc1`, the cytotoxicity at 70.5 h is -7.1%.

For the compound `Cc1noc(C)c1-c1cncc(C2CCCN2Cc2c[nH]cn2)n1` (centres undefined), the cytotoxicity at 70.5 h is -6.81%.

On to `CCCn1nc2c(cc1=O)CN(CCCN1CCCC1=O)CC2`, for which the cytotoxicity at 70.5 h stood at 7.69%.

Take `CCCc1nc(CN(CC)C(=O)c2ccc3c(c2)nnn3C)no1`: the cytotoxicity at 70.5 h is -2.39%.

For `CN(C)S(=O)(=O)N1CCC2(CC1)CC(Oc1ccccn1)CO2` (centres undefined), the cytotoxicity at 70.5 h came out at 0.296%.

`COc1ccc(-n2ncc3c2NC(=O)CSC3C(C)C)cc1` (centres undefined): the cytotoxicity at 70.5 h is -3.9%.

`c1ccc(CCN2CCN(C3CCOC4(CCOCC4)C3)CC2)nc1` (centres undefined): the cytotoxicity at 70.5 h was -9.08%.

In the case of `CCn1cnnc1CNC(=O)c1ccc(Br)cc1F`, the cytotoxicity at 70.5 h is 22.3%.

For `CC(C)[C@@H]1CN(CCOc2ccccc2)C[C@H]1NS(=O)(=O)N(C)C`, the cytotoxicity at 70.5 h was -5.28%.

For the compound `CCn1ccnc1CN1CCCN(C(=O)c2sccc2C#N)CC1`, the cytotoxicity at 70.5 h was 1.96%.
